Data on nine compounds can be found in patent publication US8962637B2, “Bicyclic compounds and their uses as dual c-SRC/JAK inhibitors” (Debiopharm S.A., priority 2010, dated 2015).

Data set [1] deals with pStat3. As to the kind of experiment: In-Cell-Western blot assay for pStat3 (ICW) in A431 cells. Type of data set: cell-based. Particulars: Homo sapiens, A-431, 2 hrs, read-out: pSTAT3 inhibition. The method, boiled down: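 Serum-starved (overnight) A431 cells treated with compound for 2 hrs, then fixed, permeabilized and probed with phospho-Stat3 antibody plus europium-labelled secondary. Europium signal normalized to Hoechst for cell number; IC50 calculated from normalized values.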

The target of another data set is JAK2 (Homo sapiens (Human), UniProt O60674). Description: TR-FRET JAK2 kinase assay. It is filed as biochemical. Particulars: ATP 10 μM; for inhibition at 0.1 µM: read-out: JAK2 % inhibition at 100 nM, 100 nM; for inhibition at 1 µM: read-out: JAK2 % inhibition at 1 μM. As to the method:
(§1) Compounds were screened in the TR-FRET assay for JAK2 and c-Src kinase inhibition. Ultra light poly GT (Perkin Elmer) was used as the substrate for JAK2 and c-Src with the ATP concentration of 10 μM and 50 μM, respectively. […] The dose-response curve fitting was done using GraphPad Prism software.

The target of the next data set is JAK1 (Homo sapiens (Human), UniProt P23458). As to the kind of experiment: JAK1 kinase inhibition. As to conditions: for inhibition at 0.1 µM: read-out: JAK1 % inhibition at 100 nM; for inhibition at 1 µM: read-out: JAK1 % inhibition at 1 μM. It is filed as biochemical.
JAK1, sequence (P23458 whole entry): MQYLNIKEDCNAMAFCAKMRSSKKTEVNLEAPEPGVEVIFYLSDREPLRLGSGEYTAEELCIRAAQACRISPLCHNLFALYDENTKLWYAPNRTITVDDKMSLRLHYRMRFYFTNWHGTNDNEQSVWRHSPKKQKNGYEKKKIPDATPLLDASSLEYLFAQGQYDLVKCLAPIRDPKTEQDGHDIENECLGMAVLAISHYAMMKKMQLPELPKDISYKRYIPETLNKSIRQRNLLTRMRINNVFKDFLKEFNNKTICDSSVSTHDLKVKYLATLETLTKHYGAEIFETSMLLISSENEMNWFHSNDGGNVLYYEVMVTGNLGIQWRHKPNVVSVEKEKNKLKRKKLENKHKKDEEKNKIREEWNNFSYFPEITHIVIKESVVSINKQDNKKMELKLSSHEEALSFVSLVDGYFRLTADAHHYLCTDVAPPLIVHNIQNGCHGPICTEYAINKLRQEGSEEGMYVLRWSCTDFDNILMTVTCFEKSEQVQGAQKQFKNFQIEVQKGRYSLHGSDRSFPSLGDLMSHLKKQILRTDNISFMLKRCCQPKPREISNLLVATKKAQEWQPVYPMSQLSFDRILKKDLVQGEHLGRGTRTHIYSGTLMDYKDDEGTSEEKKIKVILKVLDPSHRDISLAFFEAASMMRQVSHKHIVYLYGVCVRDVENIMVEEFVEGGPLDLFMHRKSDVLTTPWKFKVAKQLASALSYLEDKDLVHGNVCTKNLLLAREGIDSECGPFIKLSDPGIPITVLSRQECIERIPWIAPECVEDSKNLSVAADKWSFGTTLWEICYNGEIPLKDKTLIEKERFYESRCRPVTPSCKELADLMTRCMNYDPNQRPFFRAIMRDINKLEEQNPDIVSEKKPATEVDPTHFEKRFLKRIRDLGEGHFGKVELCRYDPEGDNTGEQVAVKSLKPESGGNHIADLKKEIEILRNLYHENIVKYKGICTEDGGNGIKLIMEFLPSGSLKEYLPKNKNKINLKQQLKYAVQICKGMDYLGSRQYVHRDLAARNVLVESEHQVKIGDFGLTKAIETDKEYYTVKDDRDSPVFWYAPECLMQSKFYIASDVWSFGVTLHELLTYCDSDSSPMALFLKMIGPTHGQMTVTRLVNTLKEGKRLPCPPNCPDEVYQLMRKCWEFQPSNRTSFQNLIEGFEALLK
A further data set concerns A431 cancer cell line. As to the kind of experiment: Inhibition of cell growth in A431. Particulars: Homo sapiens, A-431. It is filed as cell-based.
The next data set in a line: Volume distribution. Particulars: in vivo. The text has this: Table 8 provides some volume distribution values of the compounds of the present invention.
The subject of a further data set is A549 cells. Description: Cell viability assay (XTT assay), A549. Type of data set: cell-based. As to conditions: Homo sapiens, 72 hrs. As to the method:
Next day compounds were added to cells and incubated for 72 hrs. Compound treatment was done in triplicates. After 72 hrs cell culture media was aspirated from the wells and XTT working solution was added and plates were incubated for 2-5 hrs. […] EC50 values were calculated using Graphpad Prism. Tumor cell lines used in the examples of the present invention were procured from ATCC. Description of the cell lines is included in the following table: […]
For orientation: Tetrazolium assays rely on reduction of a dye to a coloured formazan, in cell work by metabolically active cells.

For another data set, the target named is c-Src (Homo sapiens (Human), UniProt P12931). Description: TR-FRET c-Src kinase assay. Type of data set: biochemical. As to conditions: ATP 50 μM; for inhibition at 0.1 µM: read-out: c-SRC % inhibition at 100 nM, 100 nM; for inhibition at 1 µM: read-out: c-SRC % inhibition at 1 μM. As to the method: as §1
c-Src, sequence (P12931 whole entry, looked up): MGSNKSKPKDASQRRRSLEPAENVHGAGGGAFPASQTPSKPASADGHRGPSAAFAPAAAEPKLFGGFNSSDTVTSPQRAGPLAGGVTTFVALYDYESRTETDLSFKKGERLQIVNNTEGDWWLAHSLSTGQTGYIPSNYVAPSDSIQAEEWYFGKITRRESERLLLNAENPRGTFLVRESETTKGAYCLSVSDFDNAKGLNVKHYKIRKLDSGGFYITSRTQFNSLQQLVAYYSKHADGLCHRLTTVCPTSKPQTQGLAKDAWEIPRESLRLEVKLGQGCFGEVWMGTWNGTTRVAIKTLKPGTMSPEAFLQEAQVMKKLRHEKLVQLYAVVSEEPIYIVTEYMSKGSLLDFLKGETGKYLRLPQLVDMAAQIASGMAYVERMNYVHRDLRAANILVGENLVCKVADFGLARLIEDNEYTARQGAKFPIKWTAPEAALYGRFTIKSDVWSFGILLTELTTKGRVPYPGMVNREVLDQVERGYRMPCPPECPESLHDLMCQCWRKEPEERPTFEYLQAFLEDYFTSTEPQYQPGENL
A general note: Time-resolved FRET reads energy transfer from a long-lived donor to a nearby acceptor.

For a further data set, the system named is Mda-Mb-231 cells. Description: Cell viability assay (XTT assay), Mda-Mb-231. Particulars: Homo sapiens, 72 hrs. It is filed as cell-based. The essentials:
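MDA-MB-231 cells seeded and dosed next day in triplicate, incubated 72 h. Medium replaced with XTT working solution for 2-5 h, absorbance read at 465 nm, and EC50 values derived from the readings.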

Data set [2] relates to pStat3. As to the kind of experiment: Quantification of pStat3 in tumors by flow cytometry. As to conditions: A549 Xenograft model. It is filed as in vivo, mice. As to the method: (§2) Measured pStat3 using FACS caliber machine (BD). Unstained PBMCs was used for cytometry settings. […] Histograms (cell number V/s FL1-H) were plotted. Percentage of cells that are phosphorylated by IL6 stimulation (M2 population), and inhibition of phosphorylation by inhibitor (decrease in M2 population) are calculated on histogram by marking peaks, M1 and M2.
Separate the tumour & 200 mg of tumour was crashed (45 mg per ml) by using IKA 10 at Speed #4 for 10 seconds. Sieve the tumour extract through 100 u, centrifuge at 900 g for 10 min. Re-suspend cells briefly in 0.5-1 ml PBS. Add formaldehyde to a final concentration of 2-4% formaldehyde. Fix for 10 minutes at 37° C. Chill tubes on ice for 1 minute.
Permeabilize cells by adding ice-cold 100% methanol slowly to pre-chilled cells, while gently vortexing, to a final concentration of 90% methanol. Alternatively, to remove fix prior to permeabilization, pellet cells by centrifugation and re-suspend in 90% methanol. Incubate 30 minutes on ice. Proceed with staining or store cells at −20° C. in 90% methanol. Aliquot 0.5-1×10^6 cells into each assay tube (by volume). Add 2-3 ml Incubation Buffer to each tube and rinse by centrifugation. Repeat. Re-suspend cells in 100 μl Incubation Buffer per assay tube. Analyze by flow cytometry like PBMCs.
On the technique in general: In flow cytometry, cells or beads pass a laser one at a time.

Data set [3] relates to pStat3. Description: Quantification of pStat3 in PBMCs by flow cytometry. Type of data set: in vivo, mice. Particulars: A549 Xenograft model. As to the method: Phosphorylation of Stat3 was stimulated by addition of hIL6 (10 ug/mL) for 30 min at 37° C. Blood was fixed with formaldehyde (final 2% v/v) for 10 min at 37° C.
Buffy coat (PBMCs) was separated by aspirating translucent layer using pipetteman and washed twice with PBS-1×
Pre chilled PBMC's were permeabilized by adding ice cold Methanol, while vortexing gently (final volume 90% MeOH v/v) and incubated for 30 min on ice.
Permeabilized PBMCs were washed with PBS once. PBMCs re-suspended to 2×10^6 cells in 200 μL of incubation buffer for 10 min at room temperature (RT). Primary Ab was added (1:100 dilution) and incubated 45 min at RT. Washed as before (twice) and re-suspended in fluorochrome conjugated secondary Ab (1:500 dilution) and incubated at RT in dark for 30 min. Washed and re-suspended in […] PBS.
as §2

A further data set has as its system A549 tumor cells. Description: A549 xenograft model. Particulars: A549 Xenograft model. It is filed as in vivo. As to the method:
Sub-cutaneous (SC) injection of 5×10^6 A549 tumor cells on the left flank of 48 female athymic nude mice. Randomization of mice 14 days after tumor cell injection into 6 groups of 8 mice each with a mean tumor volume of 134±5 mm3.
Formulation: 20% HPC, 2% ethanol solution in PBS for the compounds No. 45, 117 and 179.
• Normal saline for Erlotinib® Dosing route: Oral for the compounds No. 45, 117 and 179, and Erlotinib® Dose Volume: 10 mL/Kg body weight Dosing schedule: Once daily for 14 consecutive days (Q1Dx14) Dosage: • Group1. Vehicle control • Group2. Erlotinib®-100 MPK • Group3. Compound No. 45—10 MPK • Group4. Compound No. 45—30 MPK • Group5. Compound No. 45—100 MPK • Group6. Compound No. 117—30 MPK • Group7. Compound No. 117—100 MPK • Group8. Compound No. 179—10 MPK • Group9. […] Plasma collected for drug concentration estimation and whole blood was collected to isolate PBMCs (peripheral blood monocytes) to determine pStat3 inhibition by flow cytometry as PD readout. Tumors were snap frozen in liquid nitrogen and stored at −80° C. to estimate pStat3 by flow cytometry as PD readout EXPT. 2
SC injection of 5×10^6 A549 tumor cells on the left flank of 24 female athymic nude mice. Randomization of mice 14 days after tumor cell injection into 3 groups of 8 mice each with a mean tumor volume of 75±7 mm3.
Formulation: 20% HPC, 2% ethanol solution in PBS for the compound No. 45
• Normal saline for Erlotinib® Dosing route: Oral for compound No. 45 and Erlotinib® Dose Volume: 10 mL/Kg body weight Dosing schedule: Once daily for 14 consecutive days (Q1Dx14) Dosage: • Group1. Vehicle control • Group2. Compound No. 45—150 MPK • Group3. […] Plasma collected for drug concentration estimation and whole blood was collected to isolate PBMCs to determine pStat3 inhibition by flow cytometry as PD readout. Tumors were snap frozen in liquid nitrogen and stored at −80° C. to estimate pStat3 by flow cytometry as PD readout Results: […]

For orientation: inhibition means the drop in the measured response relative to a control, in per cent. As a reminder, the EC50 is the concentration giving half of the maximal effect. A lower EC50 goes with greater potency. For orientation: Vd means the apparent volume that relates the amount in the body to the concentration in plasma or blood. Higher therefore signals wide distribution into tissue.

JAK2, sequence (O60674 whole entry): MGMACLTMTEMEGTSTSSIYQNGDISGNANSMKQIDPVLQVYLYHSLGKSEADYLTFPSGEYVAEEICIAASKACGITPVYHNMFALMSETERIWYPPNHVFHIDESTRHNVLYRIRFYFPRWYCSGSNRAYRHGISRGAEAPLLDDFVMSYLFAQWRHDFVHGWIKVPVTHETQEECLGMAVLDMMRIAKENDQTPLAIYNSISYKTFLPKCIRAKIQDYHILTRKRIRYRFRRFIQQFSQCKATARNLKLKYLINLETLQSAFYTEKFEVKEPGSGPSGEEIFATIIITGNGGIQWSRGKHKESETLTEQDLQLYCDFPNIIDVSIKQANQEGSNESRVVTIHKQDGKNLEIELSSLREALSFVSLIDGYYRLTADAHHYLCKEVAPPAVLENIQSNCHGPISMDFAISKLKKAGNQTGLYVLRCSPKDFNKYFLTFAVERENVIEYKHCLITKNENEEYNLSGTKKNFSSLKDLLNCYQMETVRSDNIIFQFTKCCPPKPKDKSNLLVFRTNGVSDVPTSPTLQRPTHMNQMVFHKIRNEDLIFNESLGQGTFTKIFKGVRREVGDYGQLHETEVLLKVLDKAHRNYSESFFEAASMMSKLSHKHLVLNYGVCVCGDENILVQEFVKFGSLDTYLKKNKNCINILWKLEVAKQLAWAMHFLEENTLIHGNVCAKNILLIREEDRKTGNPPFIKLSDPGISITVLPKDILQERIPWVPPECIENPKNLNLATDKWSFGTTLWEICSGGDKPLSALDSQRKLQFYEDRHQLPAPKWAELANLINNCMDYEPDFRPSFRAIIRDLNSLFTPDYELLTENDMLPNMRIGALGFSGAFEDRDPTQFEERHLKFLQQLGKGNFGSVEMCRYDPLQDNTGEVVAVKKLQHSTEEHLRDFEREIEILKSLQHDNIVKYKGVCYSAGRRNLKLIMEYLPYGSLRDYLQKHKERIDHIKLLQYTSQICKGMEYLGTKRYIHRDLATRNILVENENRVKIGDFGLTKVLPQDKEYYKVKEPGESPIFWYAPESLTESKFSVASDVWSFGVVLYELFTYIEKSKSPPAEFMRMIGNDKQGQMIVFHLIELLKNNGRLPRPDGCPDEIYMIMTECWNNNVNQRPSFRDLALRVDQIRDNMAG

As to `Cc1ccc(NC(=O)c2cccc(C(F)(F)F)c2)cc1N1CCc2nc(Nc3ccc(C(=O)N4CCN(C)CC4)cc3)ncc2C1` [Compound 17, N-(4-Methyl-3-{2-[4-(4-methyl-piperazine-1-carbonyl)-phenylamino]-7,8-dihydro-5H-pyrido[4,3-d]pyrimidin-6-yl}-phenyl)-3-trifluoromethyl-benzamide], the IC50 in the data set on pStat3 [1] was determined as 0.15 µM; on JAK2 it was 0.003 µM; at c-Src it was 0.002 µM. Also, the inhibition at 0.1 µM on JAK1 was found to be 85%. Also, at JAK1, the inhibition at 1 µM was 89%. Further, the EC50 with A431 cancer cell line came to 0.092 µM; in the data set with A549 cells it was 0.01 µM; in the data set on Mda-Mb-231 cells, 0.044 µM. This compound came in with a Vd in the data set “Volume distribution” of 7.7 L/kg.

Consider `Cc1ccc(NC(=O)CCC(F)(F)F)cc1N1CCc2nc(Nc3ccc(N4CCN(C)CC4)cc3)ncc2C1` [Compound 131, 4,4,4-Trifluoro-N-(4-methyl-3-{2-[4-(4-methyl-piperazin-1-yl)-phenylamino]-7,8-dihydro-5H-pyrido[4,3-d]pyrimidin-6-yl}-phenyl)-butyramide], for which the Vd in “Volume distribution” came to 7.14 L/kg. Also, on c-Src, the inhibition at 0.1 µM was found to be 74% and the inhibition at 1 µM is 90%. For the same compound, the EC50 with Mda-Mb-231 cells amounted to 0.88 µM.

Turning to `Cc1ccc(NC(=O)CCC(F)(F)F)cc1N1CCc2nc(Nc3ccc(OCCN4CCCC4)cc3)ncc2C1` [Compound 147, 4,4,4-Trifluoro-N-(4-methyl-3-{2-[4-(2-pyrrolidin-1-yl-ethoxy)-phenylamino]-7,8-dihydro-5H-pyrido[4,3-d]pyrimidin-6-yl}-phenyl)-butyramide], at JAK2, the IC50 was 0.021 µM, the inhibition at 0.1 µM was determined as 88% and the inhibition at 1 µM worked out at 93%. In “Volume distribution”, this compound gave a Vd of 20.6 L/kg. Also, at c-Src, the inhibition at 0.1 µM worked out at 67% and the inhibition at 1 µM was 90%. For the same compound, a half-maximal response in the data set on Mda-Mb-231 cells (EC50) required 0.72 µM.

As to `Cc1ccc(NC(=O)CC(C)C(F)(F)F)cc1N1CCc2nc(Nc3ccc(OCCN4CCCC4)cc3)ncc2C1` (stereo not shown) [Compound 155, 4,4,4-Trifluoro-3-methyl-N-(4-methyl-3-{2-[4-(2-pyrrolidin-1-yl-ethoxy)-phenylamino]-7,8-dihydro-5H-pyrido[4,3-d]pyrimidin-6-yl}-phenyl)-butyramide], the values for the IC50 on JAK2 and at c-Src were 0.018 µM and 0.002 µM, respectively. In addition, in “Volume distribution”, the Vd stood at 11.8 L/kg. In addition, in the data set on Mda-Mb-231 cells, the EC50 is 1.2 µM.

With `CN1CCN(c2ccc(Nc3ncc4c(n3)CCN(c3cc(NC(=O)c5cccc(C(F)(F)F)c5)ccc3Cl)C4=O)cc2)CC1` [Compound 162, N-(4-Chloro-3-{2-[4-(4-methyl-piperazin-1-yl)-phenylamino]-5-oxo-7,8-dihydro-5H-pyrido[4,3-d]pyrimidin-6-yl}-phenyl)-3-trifluoromethyl-benzamide], the IC50 in the data set on pStat3 [1] was found to be 0.35 µM; against JAK2, 0.006 µM; on c-Src, 0.027 µM. The inhibition at 0.1 µM is 92% on JAK2 and 73% at c-Src. Further, the inhibition at 1 µM is 97% at JAK2 and 81% at c-Src. Besides, the results for the EC50 in the data set with A431 cancer cell line, in the data set on A549 cells and with Mda-Mb-231 cells were 0.6 µM, 1.14 µM and 1.38 µM, respectively. In the data set “Volume distribution”, this compound had a Vd of 3.35 L/kg.

On to `Cc1cc(Nc2ncc3c(n2)CCN(c2cc(NC(=O)c4cccc(C(F)(F)F)c4)ccc2Cl)C3=O)ccc1N1CCN(C)CC1` [Compound 171, N-(4-Chloro-3-{2-[3-methyl-4-(4-methyl-piperazin-1-yl)-phenylamino]-5-oxo-7,8-dihydro-5H-pyrido[4,3-d]pyrimidin-6-yl}-phenyl)-3-trifluoromethyl-benzamide], for which the IC50 in the data set on pStat3 [1] was 0.471 µM; against JAK2, 0.019 µM; against c-Src, 0.02 µM. Further, the figures for the inhibition at 0.1 µM on JAK2, on JAK1 and on c-Src were 92%, 61% and 74%, respectively. Moreover, the inhibition at 1 µM at JAK2 amounted to 97%; at JAK1 it was 84%; on c-Src it was 87%. The compound further registered a Vd in the data set “Volume distribution” of 0.794 L/kg. The “distribution volume (in words)” value in the data set “Volume distribution” was “weak volume of distribution”. The figures for the half-maximal effective concentration (EC50) in the data set with A549 cells and in the data set with Mda-Mb-231 cells were 2.1 µM and 1.3 µM, respectively.

The compound `O=C(COc1ccc(Nc2ncc3c(n2)CCN(c2cc(NC(=O)c4cccc(C(F)(F)F)c4)ccc2Cl)C3=O)cc1)NC1CC1` [Compound 185, N-(4-Chloro-3-[2-(4-(cyclopropylcarbamoylmethoxy)phenylamino)-5-oxo-7,8-dihydro-5H-pyrido[4,3-d]pyrimidin-6-yl]-phenyl}-3-trifluoromethyl-benzamide] showed a distribution volume (Vd) in “Volume distribution” of 0.583 L/kg.

For the compound `C#Cc1cccc(Nc2ncnc3cc(OCCOC)c(OCCOC)cc23)c1` [Erlotinib, reference compound], in the data set with pStat3 [2] (100 MPK), the “Tumors % pStat3 inhibition” value is given as 28.14%. For the same compound, the “PBMCs % pStat3 inhibition” value in the data set on pStat3 [3] (100 MPK) came to 44.43%. The “% TGI (Tumor Growth Inhibition)” value in the data set with A549 tumor cells (100 MPK) is listed as 59.55%.

With `CCC1=C[C@@H]2CN(C1)Cc1c([nH]c3ccccc13)[C@@](C(=O)OC)(c1cc3c(cc1OC)N(C)[C@H]1[C@@](O)(C(=O)OC)[C@H](OC(C)=O)[C@]4(CC)C=CCN5CC[C@]31[C@@H]54)C2` [Vinorelbine, reference compound], the “Tumors % pStat3 inhibition” value in the data set with pStat3 [2] (8 MPK) is reported as 25.2%. In the data set with pStat3 [3] (8 MPK), the “PBMCs % pStat3 inhibition” value is on record as 28.8%. Moreover, the “% TGI (Tumor Growth Inhibition)” value in the data set on A549 tumor cells (8 MPK) is given as 51.89%.
